Experiment [1] has as its system GAr-based inhibition of translation. In words: Yeast assay (assays described in Lista et al.). Type of experiment: cell-based, Saccharomyces cerevisiae. An excerpt:
A yeast-based (Saccharomyces cerevisiae) assay that recapitulates all the aspects of the GAr-based inhibition of translation, including the GAr-length dependency, has been developed, that allowed understanding the mechanisms of GAr-mediated mRNA translation—suppression in cis, as well as the cellular factors involved (Lista et al. Biotechnol J 2015, 10, 1670-1681). This assay was successfully used to identify small molecular weight compounds that can stimulate EBNA1 expression both in yeast and mammalian cells and that relieve GAr-based limitation of antigen presentation (Voisset et al. Dis Model Mech 2014, 7, 435-444).
Compounds 1a, 2a, 4a, 5a, 7a, 10a and 11a were also tested in the various assay described in Lista et al. (Nat Commun 2017, 8, 16043).

Experiment [2] concerns interaction between NCL and the G4s of EBNA1 mRNA. Conditions: earlier study, Lista et al. Nat Commun 2017; cited from earlier work.
A further experiment addresses G4-RNA EBNA1. Description: HT-G4-FID assay: Thiazole Orange displacement from G4-RNA. Type of experiment: binding, Epstein-Barr virus. The method, then: This assay is based on the displacement of a fluorescent indicator (Thiazole Orange, hereinafter TO) from a G4-RNA structure (RNA G-quadruplex of EBNA1) by a putative ligand such as the compounds of the invention (see FIG. 1). This displacement is quantified as % TO displacement. The percentage of TO displacement is calculated from the fluorescence intensity (F) in the presence of a putative ligand, using:
[formula] where F0 is fluorescence intensity of the probe (TO) bound to RNA without added ligand. The percentage of displacement is then plotted as a function of the concentration of added ligand. The RNA affinity of putative ligands is evaluated using the concentration of a ligand required to decrease the fluorescence of the probe by 50% (noted DC50), which is determined graphically from non-linear fitting of the displacement curve. […] 2. Materials and Reagents
Thiazole Orange (TO) and cacodylic acid were purchased from Aldrich and used without further purification. The oligoribonucleotide EBNA1 [5′-r(GGGGCAGGAGCAGGAGGA)-3′] (SEQ ID no 1) purified by reversed-phase HPLC was purchased from Eurogentec.
Stock solutions of the ligands (2 mM in DMSO (dimethylsulfoxyde)) were used for G4-FID assay, unless otherwise stated, and were stored at −20° C. Stock solutions of TO (2 mM in DMSO) were used for G4-FID assay. Fluorescent probe powders and solutions were stored and used, protected from light and used as aliquots to avoid freeze-thaw cycles. HT-G4-FID measurements were performed on a FLUOstar Omega microplate reader (BMG Labtech) with 96-well Non-Binding Surface black with black bottom polystyrene microplates (Corning ref 3650).
For HT-G4-FID assay, the oligonucleotide was dissolved in K^+−100-buffer (10 mM lithium cacodylate, pH 7.3, 100 mM KCl, 1 mM EDTA, 1% DMSO). Oligonucleotide concentrations were determined on the basis of their absorbance at 260 nm. Prior to use, the oligonucleotide was pre-treated by heating at 95° C. for 5 min followed by a slow cooling to 25° C.
Each G4-FID assay is performed in a 96-well microplates. […] The microplate is filled with (a) K^+−100 solution (qs for 200 μL) (b) 10 μL of a solution of pre-folded oligonucleotides (5 μM) and TO (10 μM-2 eq) and (c) an extemporaneously prepared 5 μM ligand solution in K^+−100 buffer (0 to 100 μL along the line of the microplate, i.e., from column […]: 0, 0.125, 0.25, 0.375, 0.5, 0.625, 0.75, 1.0, 1.25, 1.5, 2.0 and 2.5 μM) (see Largy et al., Anal Bioanal Chem 2011, 400, 34193427). After 5 min of orbital shaking at 500 rpm, fluorescence intensity is measured using the following experimental parameters: positioning delay: 0.5 s, 20 flashes per well, emission/excitation filters (nm): 485/520, gain adjusted at 80% of the fluorescence from the most fluorescent well (i.e., a well from column A).
Results are shown in Table 1 below (lower DC50 values indicate higher affinity of compounds to the G4-RNA structure of EBNA1).

A further experiment has as its system quadruplex RNA F-EBNA1-T. In words: FRET-melting assay. The experiment is classed as binding, Epstein-Barr virus. An excerpt:
The FRET-melting assay is based on thermal denaturation of G4-ARN monitored by fluorescence due to the phenomenon of Förster Resonance Energy Transfer (FRET). This method uses quadruplex-forming RNA sequence dual-labeled with two different fluorophores: a donor (fluorescein, or FAM) and an acceptor (tetramethylrhodamine, or TAMRA). When RNA is folded into G-quadruplex (G4) structure, fluorescence of the donor fluorophore is weak due to strong energy transfer (FRET) to the neighboring acceptor fluorophore. Upon thermal denaturation, the quadruplex unfolds and the fluorophores are separated, leading to decrease of the FRET effect and increase of the fluorescence of the donor (see FIG. 2). By following the fluorescence of the donor as a function of temperature, a melting curve of the G-quadruplex RNA can be obtained, which allows determining the temperature of denaturation at which 50% of the quadruples is unfolded (T1, FIG. 3).
The FRET-melting assay allows assessing the affinity of small molecules (ligands) for the G4-RNA. The addition of a G4-ligand stabilizes the G-quadruplex structure and increases the denaturation temperature. The temperature of denaturation in the presence of ligands (T2) can be compared with that obtained in the absence of ligands (T1). The value of ΔTm (ΔTm=T2−T1) represents a measure of the affinity of the compounds of the invention (ligand). Generally, values of ΔTm>20° C. correspond to ligands of high affinity.
The dual-labeled oligoribonucleotide EBNA1 [5′-FAM-r(GGGGCAGGAGCAGGAGGA)-TAMRA-3′] (SEQ ID no 2) purified by reversed-phase HPLC was purchased from Eurogentec. The donor fluorophore was 6-carboxyfluorescein (FAM) and the acceptor fluorophore was 6-carboxytetramethylrhodamine (TAMRA).
Stock solutions of the ligands (2 mM in DMSO) were used for FRET-melting assay, unless otherwise stated, and were stored at −20° C. FRET-melting measurements are performed on 7900HT Fast Real-Time PCR System (Applied Biosystems) with Microamp Fast optical 96-well reaction plate (Applied Biosystems).
Preparation of Oligonucleotides For FRET-melting assay, oligoribonucleotide F-EBNA1-T was dissolved in K^+10 buffer (10 mM lithium cacodylate buffer, pH 7.3, supplemented with 10 mM KCl and 90 mM LiCl).
Prior to use, all oligonucleotides were pre-treated by heating at 95° C. for 5 min, then rapidly cooled to 4° C. to favor the intramolecular folding by kinetic trapping. Duplex-DNA ds26 (5′CAA-TCG-GAT-CGA-ATT-CGA-TCC-GAT-TG-3′) (SEQ ID no 3) was prepared by heating this self-complementary strand at 90° C. for 5 min in K^+10 buffer followed by a slow cooling over 6 h.
FRET-melting assay is performed in 96-well plates on real time PCR apparatus 7900HT Fast Real-Time PCR System using the heating ramp as follow: 5 min at 25° C., then increase of 0.5° C. every minute until 95° C. Each experimental condition was tested in duplicated in a volume of 25 μL for each sample. The 96-well plates (Applied Biosystems) were prepared by aliquoting the annealed RNA (24 μL of 0.21 μM solution in K^+10 buffer) into each well, followed by 1 μL of ligand solution (25 μM in K^+10 buffer). For competition experiments, duplex competitors were added to 200 nM quadruplex sequences at final concentrations of 3.0 μM (15 eq) and 10.0 μM (50 eq), with a total reaction volume of 25 μL, with the labeled oligoribonucleotide (0.2 μM) and the ligand (1.0 μM). Measurements were made with excitation at 492 nm and detection at 516 nm. The change in the melting temperature in the presence of 1.0 μM putative ligand, ΔTm (1.0 μM), was calculated from at least two experiments by subtraction of the blank from the averaged melting temperature of each compound (1.0 μM).
The results are shown in FIG. 4 and in Table 2 below (higher ΔTm values indicate higher affinity of the compounds to G4-RNA structure of EBNA1).

For the molecule `C[n+]1ccc(C=NNC(=O)c2cc(C(=O)NN=Cc3cc[n+](C)cc3)ncn2)cc1.[I-].[I-]` [Compound 4a, N′^4,N′^6-Bis[(1-methylpyridinium-4-yl)methylene]pyrimidine-4,6-dicarbohydrazide iodide], the “result in the yeast assay” value in experiment [1] was “positive results”.
On the same count and under the same terms, with `C[n+]1ccc(C=NNC(=O)c2cc(C(=O)NN=Cc3cc[n+](C)c4ccccc34)ncn2)c2ccccc21.[I-].[I-]` [Compound 5a, N′^4,N′^6-Bis[(1-methylquinolinium-4-yl)methylene]pyrimidine-4,6-dicarbohydrazide iodide] the entry was “positive results”.
As for `C[n+]1ccc(C=NNC(=O)c2ccc3ccc(C(=O)NN=Cc4cc[n+](C)cc4)nc3n2)cc1.[I-].[I-]` [Compound 7a, N′^2,N′^7-Bis[(1-methylpyridinium-4-yl)methylene]-1,8-naphthyridine-2,7-dicarbohydrazide iodide], the “result in the yeast assay” value in experiment [1] is given as “positive results”.
The same measure, in the same setting: to `C[n+]1ccc(C=NNC(=O)c2cccc(C(=O)NN=Cc3cc[n+](C)cc3)n2)cc1.[I-].[I-]` [Compound 1a, N′^2,N′^6-Bis[(1-methylpyridinium-4-yl)methylene]pyridine-2,6-dicarbohydrazide iodide] belongs “positive results”.
Take `C[n+]1cc(NC(=O)c2ccc3ccc4ccc(C(=O)Nc5cc6ccccc6[n+](C)c5)nc4c3n2)cc2ccccc21` [PhenDC3]: in experiment [2], the “NCL-EBNA1 mRNA G-quadruplex interaction by PLA” value is given as “prevented”.
On G4-RNA EBNA1 (K+-100 buffer, pH 7.3, triplicate assays), `C[n+]1ccc(C=NNC(=O)c2ccc3ccc4ccc(C(=O)NN=Cc5cc[n+](C)cc5)nc4c3n2)cc1.[I-].[I-]` [Compound 10a, N′^2,N′^9-Bis[(1-methylpyridinium-4-yl)methylene]-1,10-phenanthroline-2,9-dicarbohydrazide iodide] returned a DC50 of 320 ± 20 nM. Further, the “affinity for the G-quadruplex structure of EBNA1 (in words, FID data)” value in the experiment on G4-RNA EBNA1 (conclusion from Table 1) is listed as “particularly high affinity”. Moreover, the “ΔTm, ligand + 3 μM ds26” value in the experiment on quadruplex RNA F-EBNA1-T (F-EBNA1-T 0.2 μM, ligand 1.0 μM, K+10 buffer, competitor DNA ds26 3 μM (15 eq)) was found to be 15.0 ± 0.6 °C. For the same molecule, the “ΔTm, ligand + 10 μM ds26” value in the experiment on quadruplex RNA F-EBNA1-T (F-EBNA1-T 0.2 μM, ligand 1.0 μM, K+10 buffer, competitor DNA ds26 10 μM (50 eq)) was 12.5 ± 1.5 °C. Besides, in the experiment with quadruplex RNA F-EBNA1-T (F-EBNA1-T 0.2 μM, ligand 1.0 μM, K+10 buffer, no competitor), the “ΔTm, ligand alone” value was 15.7 ± 0.6 °C. The “affinity for the G-quadruplex structure of EBNA1 (in words, FRET-melting data)” value with quadruplex RNA F-EBNA1-T (conclusion from Table 2) was “particularly high affinity”. For the same molecule, in experiment [1], the “result in the yeast assay” value is given as “positive results”.
